This assay concerns the target T1, adenine deaminase (Ade) (Clostridioides difficile, UniProt A0A9R0BKJ2).
T1 construct: codon-optimized ade in pWL613a (pET28b derivative), N-terminal His-tag, expressed in E. coli BL21(DE3), Ni-NTA and Superdex 200
The assay can be described thus: surface plasmon resonance, His-captured protein. The class given is binding. (Surface plasmon resonance follows binding to a sensor surface in real time, without labels.)

From article PMC11566853, “Chemical genetic analysis of enoxolone inhibition of Clostridioides difficile toxin production reveals adenine deaminase and ATP synthase as antivirulence targets” (The Journal of Biological Chemistry, 2024) come the findings set out here.

SMILES strings stand for the structures.

T1 sequence (A0A9R0BKJ2 entry or part of it): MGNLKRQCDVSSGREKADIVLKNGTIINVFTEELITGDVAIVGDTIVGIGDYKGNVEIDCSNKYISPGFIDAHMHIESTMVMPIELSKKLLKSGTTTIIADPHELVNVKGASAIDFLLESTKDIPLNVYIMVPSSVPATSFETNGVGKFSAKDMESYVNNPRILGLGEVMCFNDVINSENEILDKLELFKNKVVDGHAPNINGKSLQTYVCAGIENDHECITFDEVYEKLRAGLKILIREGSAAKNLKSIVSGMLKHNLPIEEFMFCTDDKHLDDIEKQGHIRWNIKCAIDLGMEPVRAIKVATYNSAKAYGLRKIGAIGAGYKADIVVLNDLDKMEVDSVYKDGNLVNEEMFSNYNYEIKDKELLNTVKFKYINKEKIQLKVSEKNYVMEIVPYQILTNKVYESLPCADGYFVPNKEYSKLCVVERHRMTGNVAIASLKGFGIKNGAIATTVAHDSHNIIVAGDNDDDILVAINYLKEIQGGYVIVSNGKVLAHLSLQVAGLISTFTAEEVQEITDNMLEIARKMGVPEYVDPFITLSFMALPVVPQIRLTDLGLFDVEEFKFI

As usually defined, the Kd is the constant that tells how readily two partners part at equilibrium. Read a high Kd as lower affinity. Consider `Clc1ncnc2[nH]cnc12` [6-chloropurine], for which the Kd was determined as 264 ± 42.9 µM.

For `CC1(C)[C@@H](O)CC[C@]2(C)[C@H]3C(=O)C=C4[C@@H]5C[C@@](C)(C(=O)O)CC[C@]5(C)CC[C@@]4(C)[C@]3(C)CC[C@@H]12` [enoxolone], the Kd is 34.6 ± 13.4 µM.
